From ChEMBL document CHEMBL1141768, “Constituents of Vittaria anguste-elongata and their biological activities” (J Nat Prod, 2005)

Tests used:
Format in all cases: functional
[1] = test system: Radical scavenging activity; experiment: Antioxidant activity assessed as DPPH free radical scavenging activity after 30 mins
SF-268 = experiment: Cytotoxicity against human SF268 cells at 58 uM
NCI-H460 = experiment: Cytotoxicity against human NCI-H460 cells at 58 uM

| IC50 [1] [µM] | Compound | inhibition at 58 µM (SF-268) [%] | inhibition at 58 µM (NCI-H460) [%] |
| --- | --- | --- | --- |
| 234 | CCOC(=O)[C@]1(O)C[C@@H](O)[C@H](OC(=O)/C=C/c2ccc(O)c(O)c2)[C@H](O)C1 |  |  |
| 290 | C[C@H]1OC(=O)[C@@H](O)[C@@H]1OC(=O)/C=C/c1ccc(O)c(O)c1 |  |  |

The next lines start with the compound.

| Compound | IC50 [1] [µM] | inhibition at 58 µM (SF-268) [%] | inhibition at 58 µM (NCI-H460) [%] |
| --- | --- | --- | --- |
| COc1cc(-c2cc(=O)c3c(O)cc(O)cc3o2)cc(OC)c1OC |  | 61 | 89 |
| O=C(/C=C/c1ccc(O)c(O)c1)OC[C@H](O)[C@H]1OC(=O)[C@H](O)[C@H]1O | 91 |  |  |
| VITAMIN E | 350 |  |  |
